Laboratory results published in patent US6458981B1, “Composition and method for preparing amino acid chelate hydroxides free of interfering ions” (Albion International, Inc., priority 2000, dated 2002).

Columns and labels:
[1] = Shaking the powder in a plastic bag (electrostatic behaviour); format: physicochemical; settings: shaken in a plastic bag
Description: A 10:1 mixture of copper glycinate to terra alba (CaSO4) [Sample 1] was prepared and shaken together in a plastic bag. Next, a pure copper glycinate without the presence of terra alba [Sample 2] was also prepared and shaken in a plastic bag.

[2] = Rubbing a portion between thumb and finger (hygroscopicity); format: physicochemical; settings: rubbed between the thumb and finger; moisture from thumb, finger and surrounding air
Text: Sample 1 was further compared to Sample 2 by rubbing a portion of each between the thumb and finger.

[3] = Addition to stimulated gastric solution (stability in an acid environment); format: physicochemical; settings: added to a stimulated gastric solution
Text: Sample 1 was similarly added to a stimulated gastric solution.

Particle size = format: physicochemical
Text: The particle size found in Sample 1 and Sample 2 was about 70 mesh.

[4] = zero ionic strength; reaction M^2+ + (Gly)^- <-> M(Gly)^+; cited from earlier work

| Molecule | electrostatic behaviour: product sticking to the walls of the bag [1] | hygroscopicity: balling up with moisture [2] | color change in stimulated gastric solution (stability in acid environment) [3] | particle size (Particle size) | log of the equilibrium constant [4] |
| --- | --- | --- | --- | --- | --- |
| NCC(=O)[O-].NCC(=O)[O-].[Cu+2] [Sample 2, copper glycinate] | a blue haze of product stuck the walls of the bag | quickly balled up with moisture | caused the product to change color | about 70 mesh | – |
| copper | – | – | – | – | 8.56 |
